Source: article PMC4481117 (Molecular Pain, 2015)

How the values were obtained:
Mac-1-HEK293 cells = experiment: Transwell migration of Mac-1-HEK293 cells to Dyn A; type: cell-based, Human; settings: 16 h at 37 °C
Experimental: (§1) Fig. 6 Migration of Mac-1-expressing cells to Dyn A in a Transwell system. a, Mac-1-expressing HEK 293 cells (100 μl at 3 × 10^6 cell/ml) were added to the upper wells of the transwell chamber and their ability to migrate to different concentrations of Dyn A placed in the lower chamber was analyzed. After 16 hours at 37 °C, migrated cells were fixed, stained, and counted. Data are presented as numbers of migrated cells per field ± S.E. for five random fields per well. The figure is representative of 5 experiments. b, Mac-1-expressing or wild-type HEK 293 cells were added to the upper wells of the transwell chamber and their ability to migrate to 10 μM Dyn A placed in the lower chamber was analyzed as in A. Some Mac-1-HEK293 cells were pretreated with 20 μg/ml of mAbs 44a (anti-αM), IB4 (anti-β2) or OKM1 (non function-blocking anti-αM) or medium alone before addition to the upper wells. ***, medium alone. Data are presented as the number of migrated cells per field ± S.E. for five random fields/well from 3 separate experiments. **, p < 0.01. c, migration of TG-elicited macrophages isolated from the peritoneum of wild-type and Mac-1-deficient mice. Macrophages (3x10^5) were placed in the upper chamber and allowed to migrate to Dyn A (10 μM) in the lower chamber for 90 min. The number of migrated cells was determined as in A. Data are presented as number of migrated cells per field ± S.E. for five random fields per well. The figure is representative of 3 experiments
(§2) Migration assays with wild-type and Mac-1-expressing HEK293 cells and purified macrophages using Transwell inserts (5 μm pore size) were performed as previously described. […] The photographs were taken using a 20x objective and cells in […] and cells were counted. […]

wild-type HEK293 cells = experiment: Transwell migration of wild-type HEK293 cells to Dyn A; type: cell-based, Human; settings: 16 h at 37 °C
Experimental: as §1, with “Data are presented as the number of migrated cells per field ± S.E. for five random fields/well from 3 separate experiments. **, p < 0.01. c, migration of TG-elicited macrophages isolated from the peritoneum of wild-type and Mac-1-deficient mice. Macrophages (3x10^5) were placed in the upper chamber and allowed to migrate to Dyn A (10 μM) in the lower chamber for 90 min.” left out, “The figure is representative of 3 experiments” left out
as §2

[1] = biological target: T1, Mac-1 (Mac-1-expressing HEK293 cells) (Homo sapiens, UniProt P05107+P11215); experiment: Adhesion of Mac-1-HEK293 cells to immobilized peptide; type: cell-based; settings: 30 min at 37 °C
T1 construct: expressed in transfected cells
Experimental: For testing the role of glucosaminoglycans in cell adhesion, dynorphin A-coated wells were preincubated with 100 μl of 10 μg/ml of chondroitin sulfate A, chondroitin sulfate B and heparin. Aliquots (5x10^4cells) were added to the wells coated with 2 μM dynorphin A and adhesion was performed as described in A. Adhesion in the absence of Mac-1 inhibitors and glucosaminoglycans was assigned a value of 100 %. The data shown are the means ± S.E. from four separate experiments each with triplicate measurements. d , microtiter plate wells were coated with different concentrations of dynorphin B and adhesion of Mac-1-expressing and wild-type HEK293 cells was determined as described in A. The data shown are means of triplicate determinations, and error bars represent S.E. The figure is representative of 5 experiments. e. calcein-labeled Mac-1-HEK293 cells were preincubated without or with 10 μg/ml of mAb 44a and heparin, added to the wells coated with 20 μM of dynorphin B and adhesion was performed as described in A. Adhesion in the absence of inhibitors was assigned a value of 100 %.
Adhesion assays were performed essentially as described previously. […] Cells were labeled with 10 μM calcein for 30 min at 37 °C and washed twice with Hanks’ Balanced salt solution (HBSS) containing 0.1 % BSA. Aliquots (100 μl) of labeled cells (5x10^5/ml) were added to each well and allowed to adhere for 30 min at 37 °C. The non-adherent cells were removed by two washes with PBS. Fluorescence was measured in a CytoFluorII fluorescence plate reader (Perceptive Biosystems, Framingham, MA). In inhibition experiments, cells were mixed with different concentrations of peptides, NIF or mAbs for 20 min at 22 °C before they were added to the wells coated with adhesive substrates. In a separate set of experiments, after coating plates with dynorphins and post-coating with 1 % PVP, plates were incubated with 100 μl of 10 μg/ml chondroitin sulfate A, chondroitin sulfate B, or heparin for 20 min at 22 °C. After aspirating the solution, labeled cells were added and cell adhesion was analyzed as above.

k-opioid receptors = system: k-opioid receptors; parameters: method as in PMID 10973443, PMID 16364815, PMID 22424981; settings: cited from earlier work
wild-type macrophages = experiment: Transwell migration of wild-type peritoneal macrophages to Dyn A; type: cell-based, mouse; settings: 10 μM Dyn A, 90 min at 37 °C, TG-elicited
Experimental: as §1, with “Data are presented as the number of migrated cells per field ± S.E. for five random fields/well from 3 separate experiments. **, p < 0.01. c, migration of TG-elicited macrophages isolated from the peritoneum of wild-type and Mac-1-deficient mice. Macrophages (3x10^5) were placed in the upper chamber and allowed to migrate to Dyn A (10 μM) in the lower chamber for 90 min.” left out, “The figure is representative of 3 experiments” left out
as §2

CC[C@H](C)[C@H](NC(=O)[C@H](CCCNC(=N)N)NC(=O)[C@H](CCCNC(=N)N)NC(=O)[C@H](CC(C)C)NC(=O)[C@H](Cc1ccccc1)NC(=O)CNC(=O)CNC(=O)[C@@H](N)Cc1ccc(O)cc1)C(=O)N[C@@H](CCCNC(=N)N)C(=O)N1CCC[C@H]1C(=O)N[C@@H](CCCCN)C(=O)N[C@@H](CC(C)C)C(=O)N[C@@H](CCCCN)C(=O)N[C@@H](Cc1c[nH]c2ccccc12)C(=O)N[C@@H](CC(=O)O)C(=O)N[C@@H](CC(N)=O)C(=O)N[C@@H](CCC(N)=O)C(=O)O [Dyn A]
Concentration at which migratory response reaches saturation (Mac-1-HEK293 cells; Transwell 5 μm): 5 µM
Lowest concentration inducing migration (Mac-1-HEK293 cells; Transwell 5 μm): 0.5 to 1 µM
Migration of Mac-1-HEK293 cells (in words) (Mac-1-HEK293 cells; Transwell): strong concentration-dependent migratory response
Migration of wild-type HEK293 cells (in words) (wild-type HEK293 cells): did not migrate
Coating concentration giving saturable adhesion ([1]; Mac-1-HEK293 cells): ~ 2 μM
Adhesion of Mac-1-HEK293 cells (in words) ([1]; coated wells, calcein-labeled cells): strongly adhered
EC50 ([1]; read-out: Coating concentration required to reach 50 % of maximal cell adhesion, Mac-1-HEK293 cells, fluorescence of calcein): 200 to 500 nM
κ-opioid receptor binding (k-opioid receptors): binds preferentially to the k-opioid receptors
Migration of wild-type macrophages (in words) (wild-type macrophages): migrated to Dyn A
